Structures can show the parent of a compound that is named as a salt. Where two headings read alike, the source gives them in different places.
What was measured:
human FXa = target: T1, human FXa (Homo sapiens, UniProt P00742); test: Determination of human FXa-inhibiting effect (IC50 value); format: biochemical
T1 construct: purchased Enzyme Research Labolatories, Inc
Description: Determination of Human FXa-inhibiting Effect (IC50 Value)
As a control, Tris buffer was used in place of the test compound.

[1] = human FXa, substrate S-2222, absorbance at 405 nm, room temperature, read-out: Human FXa-inhibiting effect (IC50)

T1 sequence (P00742 235-488 limits assumed): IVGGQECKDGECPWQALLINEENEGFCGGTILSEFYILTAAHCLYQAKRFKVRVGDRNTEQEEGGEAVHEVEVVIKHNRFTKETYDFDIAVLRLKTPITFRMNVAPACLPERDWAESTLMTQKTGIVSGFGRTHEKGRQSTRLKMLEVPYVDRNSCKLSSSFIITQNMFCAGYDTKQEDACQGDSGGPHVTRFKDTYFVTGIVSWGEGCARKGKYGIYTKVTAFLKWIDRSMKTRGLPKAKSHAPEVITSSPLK
T1 sequence (P00742 41-179 partner limits assumed): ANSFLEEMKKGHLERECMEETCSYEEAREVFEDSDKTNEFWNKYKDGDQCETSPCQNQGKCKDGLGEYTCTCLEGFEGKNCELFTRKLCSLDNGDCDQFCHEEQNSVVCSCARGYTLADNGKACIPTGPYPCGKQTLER

| Compound | melting point | IC50 (human FXa; [1]) | also measured |
| --- | --- | --- | --- |
| CN1CCc2nc(C(=O)N[C@H]3CCC[C@@H]3NC(=O)c3cc4cc(Cl)ccc4[nH]3)sc2C1 (relative stereo) [Example 3, N-((1R*,2R*)-2-{[(5-Chloroindol-2-yl)carbonyl]amino}-cyclopentyl)-5-methyl-4,5,6,7-tetrahydrothiazolo[5,4-c]-pyridine-2-carboxamide hydrochloride] |  |  | IC50 (human FXa): 86 nM |
| CN1CCc2nc(C(=O)N[C@@H]3CCCC[C@@H]3NC(=O)c3ccc4cc(Cl)ccc4c3)sc2C1 (relative stereo) [Example 7, N-{(1R*,2S*)-2-[(6-Chloronaphthoyl)amino]cyclohexyl}-5-methyl-4,5,6,7-tetrahydrothiazolo[5,4-c]pyridine-2-carboxamide hydrochloride] |  | 83 nM |  |
| CN1CCc2nc(C(=O)N[C@@H]3CCCC[C@@H]3NC(=O)c3cc4cc(Br)ccc4[nH]3)sc2C1 (relative stereo) [Example 11, N-((1R*,2S*)-2-{[(5-Bromoindol-2-yl)carbonyl]amino}-cyclohexyl)-5-methyl-4,5,6,7-tetrahydrothiazolo[5,4-c]-pyridine-2-carboxamide hydrochloride] |  | 92 nM |  |
| CN1CCc2nc(C(=O)N[C@@H]3CCN(C(=O)OC(C)(C)C)C[C@@H]3NC(=O)c3cc4cc(Cl)ccc4[nH]3)sc2C1 (relative stereo) [Example 119, tert-Butyl (3R*,4S*)-3-{[(5-chloroindol-2-yl)carbonyl]-amino}-4-{[(5-methyl-4,5,6,7-tetrahydrothiazolo[5,4-c]-pyridin-2-yl)carbonyl]amino}piperidine-1-carboxylate] | 187 to 189 °C (dec.) |  |  |
| CCOC(=O)N1CC[C@H](NC(=O)c2cc3cc(Cl)ccc3[nH]2)[C@H](NC(=O)c2nc3c(s2)CN(C)CC3)C1 (relative stereo) [Example 130, Ethyl (3R*,4S*)-4-{[(5-chloroindol-2-yl)carbonyl]amino}-3-{[(5-methyl-4,5,6,7-tetrahydrothiazolo[5,4-c]pyridin-2-yl)carbonyl]amino}piperidine-1-carboxylate hydrochloride] |  | 4.5 nM |  |
| CN1CCc2nc(C(=O)N[C@@H]3CN(C(=O)C4CC4)CC[C@@H]3NC(=O)c3cc4cc(Cl)ccc4[nH]3)sc2C1 (relative stereo) [Example 138, N-[(3R*,4S*)-4-{[(5-Chloroindol-2-yl)carbonyl]amino}-1-(cyclopropylcarbonyl)piperidin-3-yl]-5-methyl-4,5,6,7-tetrahydrothiazolo[5,4-c]pyridine-2-carboxamide hydrochloride] |  | 4.4 nM |  |
| COCC(=O)N1CC[C@H](NC(=O)c2cc3cc(Cl)ccc3[nH]2)[C@H](NC(=O)c2nc3c(s2)CN(C)CC3)C1 (relative stereo) [Example 143, N-[(3R*,4S*)-4-{[(5-Chloroindol-2-yl)carbonyl]amino}-1-(2-methoxyacetyl)piperidin-3-yl]-5-methyl-4,5,6,7-tetrahydro-thiazolo[5,4-c]pyridine-2-carboxamide hydrochloride] |  | 5.8 nM |  |
| CN1CCc2nc(C(=O)N[C@@H]3CN(C(=O)OC(C)(C)C)C[C@H]3NC(=O)c3cc4cc(Cl)ccc4[nH]3)sc2C1 [Example 94, tert-Butyl (3R,4R)-3-{[(5-chloroindol-2-yl)carbonyl]-amino}-4-{[(5-methyl-4,5,6,7-tetrahydrothiazolo[5,4-c]-pyridin-2-yl)carbonyl]amino}pyrrolidine-1-carboxylate] | 190 to 192 °C |  |  |

Further lines, with some results ahead:

| melting point | IC50 (human FXa; [1]) | Compound | also measured |
| --- | --- | --- | --- |
| 242 to 247 °C |  | CN1CCc2nc(C(=O)N[C@@H]3CCS(=O)(=O)C[C@@H]3NC(=O)c3cc4cc(Cl)ccc4[nH]3)sc2C1 (relative stereo) (as salt: hydrochloride) [Example 180, N-((3R*,4R*)-3-{[(5-Chloroindol-2-yl)carbonyl]amino}-1,1-dioxohexahydro-1-thiopyran-4-yl)-5-methyl-4,5,6,7-tetrahydrothiazolo[5,4-c]pyridine-2-carboxamide hydrochloride] |  |
| 244 to 249 °C |  | CN1CCc2nc(C(=O)N[C@@H]3CS(=O)(=O)CC[C@H]3NC(=O)c3cc4cc(Cl)ccc4[nH]3)sc2C1 (relative stereo) (as salt: hydrochloride) [Example 181, N-((3R*,4S*)-4-{[(5-Chloroindol-2-yl)carbonyl]amino}-1,1-dioxohexahydro-1-thiopyran-3-yl)-5-methyl-4,5,6,7-tetrahydrothiazolo[5,4-c]pyridine-2-carboxamide hydrochloride] |  |
| 236 to 241 °C |  | CN1CCc2nc(C(=O)N[C@@H]3CS(=O)(=O)CC[C@H]3NC(=O)c3cc4cc(F)ccc4[nH]3)sc2C1 (relative stereo) (as salt: hydrochloride) [Example 182, N-((3R*,4S*)-4-{[(5-Fluoroindol-2-yl)carbonyl]amino}-1,1-dioxohexahydro-1-thiopyran-3-yl)-5-methyl-4,5,6,7-tetrahydrothiazolo[5,4-c]pyridine-2-carboxamide hydrochloride] |  |
| 244 to 249 °C |  | CN1CCc2nc(C(=O)N[C@@H]3CCS(=O)(=O)C[C@@H]3NC(=O)c3cc4cc(F)ccc4[nH]3)sc2C1 (relative stereo) (as salt: hydrochloride) [Example 183, N-((3R*,4R*)-3-{[(5-Fluoroindol-2-yl)carbonyl]amino}-1,1-dioxohexahydro-1-thiopyran-4-yl)-5-methyl-4,5,6,7-tetrahydrothiazolo[5,4-c]pyridine-2-carboxamide hydrochloride] |  |
| 220 °C (dec.) |  | CN1CCc2nc(C(=O)N[C@@H]3CN(C(=O)C(C)(C)CO)CC[C@@H]3NC(=O)c3cc4cc(Cl)ccc4[nH]3)sc2C1 (relative stereo) [Example 146, N-[(3R*,4S*)-4-{[(5-chloroindol-2-yl)carbonyl]amino}-1-(3-hydroxy-2,2-dimethylpropanoyl)piperidin-3-yl)-5-methyl-4,5,6,7-tetrahydrothiazolo[5,4-c]pyridine-2-carboxamide] |  |
| 240 °C (dec.) |  | COCC(C)(C)C(=O)N1CC[C@H](NC(=O)c2cc3cc(Cl)ccc3[nH]2)[C@H](NC(=O)c2nc3c(s2)CN(C)CC3)C1 (relative stereo) [Example 147, N-[(3R*,4S*)-4-{[(5-chloroindol-2-yl)carbonyl]amino}-1-(3-methoxy-2,2-dimethylpropanoyl)piperidin-3-yl)-5-methyl-4,5,6,7-tetrahydrothiazolo[5,4-c]pyridine-2-carboxamide] |  |
| 190 °C (dec.) |  | CC(=O)OC(C)(C)C(=O)N1CC[C@H](NC(=O)c2cc3cc(Cl)ccc3[nH]2)[C@H](NC(=O)c2nc3c(s2)CN(C)CC3)C1 (relative stereo) [Example 148, 2-((3R*,4S*)-4-{[(5-Chloroindol-2-yl)carbonyl]amino}-3-{[(5-methyl-4,5,6,7-tetrahydrothiazolo[5,4-c]pyridin-2-yl)carbonyl]amino}piperidin-1-yl)-1,1-dimethyl-2-oxoethyl acetate] |  |
| 190 °C (dec.) |  | CN1CCc2nc(C(=O)N[C@@H]3CN(C(=O)C(C)(C)O)CC[C@@H]3NC(=O)c3cc4cc(Cl)ccc4[nH]3)sc2C1 (relative stereo) [Example 149, N-[(3R*,4S*)-4-{[(5-Chloroindol-2-yl)carbonyl]amino}-1-(2-hydroxy-2-methylpropanoyl)piperidin-3-yl]-5-methyl-4,5,6,7-tetrahydrothiazolo[5,4-c]pyridine-2-carboxamide] |  |
